The values that follow come from ChEMBL document CHEMBL1201862, “PubChem BioAssay data set” (2004).

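96-well plates; 48 h exposure; 5 concentrations. Endpoints by linear interpolation between flanking doses. Not reached: highest tested concentration assigned. Here, GI50 denotes the concentration required for 50% inhibition of growth.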 Calls of active or inactive are those of the source. No stated cut-off is given here; in the data, active = GI50 up to about 1.1 µM and inactive = higher. Bounds are passed on as bounds.

What all share (assay): inhibition of tumour cell growth, NCI panel, 48 h
The test system of test [1] is A549.
In test [2] the test system is ACHN.
Test [3] deals with DU-145.
The subject of test [4] is EKVX.
In test [5] the test system is HCT-15.
Test [6] has as its system HOP-92.
In test [7] the test system is HT-29.
Test [8] deals with IGROV-1.
The test system of test [9] is M14.
Test [10] relates to MDA-MB-435.
The subject of test [11] is NCI-H23.
Test [12] has as its system NCI-H460.
Test [13] relates to NCI-H522.
For test [14], the system named is OVCAR-3.
The subject of test [15] is OVCAR-8.
For test [16], the system named is PC-3.
Test [17] has as its system RPMI-8226.
The test system of test [18] is SF-539.
Test [19] deals with SK-MEL-5.
Test [20] relates to SNB-75.

Take `Cc1cnc2c(c1)C(=O)N(c1ccc(Oc3ccccc3)cc1)S2(=O)=O`: the GI50 in test [1] was > 100 µM (inactive); in test [2], > 100 µM (inactive); in test [3], > 100 µM (inactive); in test [4], > 100 µM (inactive); in [5], over 100 µM; in [6], > 100 µM (inactive). The GI50 in [7] was > 100 µM (inactive); in [8], 57.8 µM (inactive); in test [9], > 100 µM (inactive); in test [10], > 100 µM (inactive); in [11], > 100 µM (inactive); in test [12], > 100 µM (inactive). Besides, the GI50 in test [13] was 57.7 µM (inactive); in test [14] it was > 100 µM (inactive); in [15] it was > 100 µM (inactive); in [16], > 100 µM (inactive); in [17] it was > 100 µM (inactive); in test [18], > 100 µM (inactive). Besides, the GI50 in test [19] and in [20] was > 100 µM (inactive) each time.

For `COc1c(Cl)c(=O)oc2ccc(Cl)cc12`, the GI50 was > 100 µM (inactive) in test [1]; > 100 µM (inactive) in test [2]; > 100 µM (inactive) in [3]; 81.7 µM (inactive) in test [4]; over 100 µM in [5]; 25.2 µM (inactive) in test [6]. Moreover, the GI50 in [7], in [8], in test [9], in test [10], in test [11] and in [12] was > 100 µM (inactive) each time. Besides, the GI50 in test [13], in [14], in [15], in test [16], in test [17] and in test [18] was > 100 µM (inactive) throughout. Further, the values for the GI50 in [19] and in test [20] were > 100 µM (inactive) and 39.9 µM (inactive), respectively.

On to `COc1ccc(P2(=S)SP(=S)(c3ccc(Cl)cc3)S2)cc1` (stereo not given), for which the GI50 was > 100 µM (inactive) in test [1]; > 100 µM (inactive) in [2]; > 100 µM (inactive) in [3]; > 100 µM (inactive) in test [4]; over 100 µM in [5]; > 100 µM (inactive) in test [6]. Further, the GI50 in test [7], in test [8], in test [9], in test [10], in [11] and in test [12] was > 100 µM (inactive) in each case. Moreover, the GI50 in [13], in test [14], in test [15], in test [16], in [17] and in test [18] was > 100 µM (inactive) in each case. Further, the GI50 in [19] and in test [20] was > 100 µM (inactive) each time.

For the compound `CC1(C)OP(=O)(c2ccccc2)C=C1Br` (stereo not given), the GI50 was > 100 µM (inactive) in test [1]; > 100 µM (inactive) in [2]; > 100 µM (inactive) in test [3]; > 100 µM (inactive) in test [4]; over 100 µM in [5]; > 100 µM (inactive) in [6]. The GI50 in test [7], in [8], in test [9], in [10], in [11] and in test [12] was > 100 µM (inactive) throughout. The GI50 in test [13] is > 100 µM (inactive); in test [14], > 100 µM (inactive); in test [15], > 100 µM (inactive); in [16] it was > 100 µM (inactive); in test [17] it was 0.348 µM (active); in test [18] it was > 100 µM (inactive). The GI50 in test [19] and in test [20] was > 100 µM (inactive) in each case.

Turning to `O=S(=O)(CC#CCS(=O)(=O)c1ccccc1)c1ccccc1`, the GI50 in test [1] is 19.1 µM (inactive); in test [2], 1.79 µM (inactive); in test [3], 4.91 µM (inactive); in test [4], 5.09 µM (inactive); in test [5] it was 1.35 µM; in [6], 1.61 µM (inactive). In addition, the GI50 in test [7] is 6.68 µM (inactive); in test [8] it was 1.44 µM (inactive); in [9], 1.86 µM (inactive); in test [10], 1.72 µM (inactive); in [11], 2.98 µM (inactive); in test [12], 12.6 µM (inactive). Moreover, the GI50 was 0.659 µM (active) in test [13]; 1.55 µM (inactive) in [14]; 1.76 µM (inactive) in test [15]; 7.45 µM (inactive) in test [16]; 1.23 µM (inactive) in [17]; 2.48 µM (inactive) in [18]. The GI50 was 4.9 µM (inactive) in [19] and 1.48 µM (inactive) in test [20].

With `C[Si](C)(C)CNC(=O)OCc1ccccc1`, the GI50 in test [1] was > 100 µM (inactive); in test [2] it was > 100 µM (inactive); in test [3], > 100 µM (inactive); in test [4], 76.7 µM (inactive); in [5], over 100 µM; in test [6], 22.1 µM (inactive). Moreover, the GI50 is 48 µM (inactive) in [7]; > 100 µM (inactive) in test [8]; > 100 µM (inactive) in [9]; > 100 µM (inactive) in [10]; 76 µM (inactive) in [11]; > 100 µM (inactive) in test [12]. Moreover, the GI50 in test [13] was 83.2 µM (inactive); in test [14], > 100 µM (inactive); in test [15] it was > 100 µM (inactive); in [16] it was > 100 µM (inactive); in test [17], 32.2 µM (inactive); in [18], > 100 µM (inactive). The GI50 in test [19] was 57.7 µM (inactive); in test [20] it was 90.4 µM (inactive).

Turning to `CC[C@@]1(O)C(=O)OCc2c1cc1n(c2=O)Cc2c-1nc1ccccc1c2/C=N\NC(=O)C(N)CCSC` (stereo not given in full), the GI50 in test [1] was 0.0183 µM (active); in test [2] it was < 0.01 µM (active); in test [3] it was 0.0175 µM (active); in test [4], 0.668 µM (active); in test [5], 0.39 µM; in [6] it was 0.0863 µM (active). In addition, the GI50 in test [7] is 0.266 µM (active); in [8], 0.239 µM (active); in [9] it was < 0.0121 µM (active); in test [10], 0.108 µM (active); in test [11], < 0.01 µM (active); in [12], < 0.01 µM (active). Also, the GI50 in [13] was < 0.032 µM (active); in test [14] it was 0.352 µM (active); in test [15] it was < 0.0119 µM (active); in [16] it was 0.13 µM (active); in [17], < 0.0282 µM (active); in [18], < 0.01 µM (active). Further, the GI50 was 0.0149 µM (active) in test [19] and < 0.01 µM (active) in test [20].

On to `c1ccc(N2N=C3N(c4ccccc4)C2N3c2ccccc2)cc1`, for which the GI50 in [1] is 47.3 µM (inactive); in test [2] it was 40.5 µM (inactive); in test [3], 56.5 µM (inactive); in test [4], > 100 µM (inactive); in [5], 42.9 µM; in test [6], 14.1 µM (inactive). The GI50 in test [7] is 29.4 µM (inactive); in test [8] it was 31.4 µM (inactive); in test [9], 20.3 µM (inactive); in test [10] it was 17.6 µM (inactive); in [11] it was 37.9 µM (inactive); in test [12] it was 31.1 µM (inactive). Besides, the GI50 in test [13] was 21.6 µM (inactive); in test [14] it was 36.6 µM (inactive); in test [15], 35.9 µM (inactive); in [16], 44.5 µM (inactive); in test [17], 15.7 µM (inactive); in test [18], 22.3 µM (inactive). Also, the GI50 in [19] was 21.6 µM (inactive); in test [20] it was 17.8 µM (inactive).

On to `CC(=O)Nc1ccc2c3c(cc(O)c2c1)N(C(=O)CCCC(=O)N1CC(CCl)c2c1cc(O)c1cc(NC(C)=O)ccc21)CC3CCl` (stereo not given), for which the GI50 is < 0.01 µM (active) in test [1]; < 0.01 µM (active) in [2]; < 0.01 µM (active) in test [3]; 0.0423 µM (active) in test [4]; 0.0773 µM in test [5]; 0.0199 µM (active) in [6]. Also, the GI50 in [7] is 0.0125 µM (active); in test [8], 0.0102 µM (active); in test [9], < 0.01 µM (active); in test [10] it was < 0.01 µM (active); in test [11], < 0.01 µM (active); in test [12], < 0.01 µM (active). For the same compound, the GI50 is < 0.01 µM (active) in test [13]; 0.0111 µM (active) in test [14]; < 0.01 µM (active) in [15]; 0.0129 µM (active) in test [16]; 0.0109 µM (active) in [17]; 0.0223 µM (active) in test [18]. Besides, the figures for the GI50 in test [19] and in test [20] were 0.0108 µM (active) and < 0.01 µM (active), respectively.
